Measurements: US20130149721A1, “Methods for Inhibiting Amyloid Precursor Protein and Beta-Amyloid Production and Accumulation” (WISCONSIN ALUMNI RESEARCH FOUNDATION, priority 2008, published 2013)

Tests used:
[1] = tested on: Aβ1-40 and Aβ1-42 in Fmr-1 KO mouse brain; experiment: Brain region Aβ ELISA after fenobam-supplemented diet in Fmr-1 KO mice
Protocol: Fmr-1 KO mice were fed placebo or fenobam-supplemented lab diet for two months prior to harvesting brains for ELISA assays. Homogenates of hippocampus (H), cortex (Cx) and cerebellum (Cb) were analyzed by ELISA for Aβ1-40 and Aβ1-42. Data were plotted as a percentage of Aβ compared to levels in control mouse hippocampus. C: control, F: Fenobam.
Fmr-1 KO mice were fed placebo or fenobam-supplemented lab diet for one month prior to harvesting brains for ELISA assays. Homogenates of hippocampus (H), cortex (Cx) and cerebellum (Cb) were analyzed by ELISA for Aβ1-40 and Aβ1-42. Data were plotted as a percentage of Aβ compared to levels in control mouse hippocampus.

anxiety in humans = conditions: cited from earlier work
anxiety in mice = conditions: cited from earlier work
rat mGluR7a = rat mGluR7a (Rattus norvegicus, UniProt P35400); conditions: doses up to 10 μm; cited from earlier work
Chain of rat mGluR7a (P35400 35-915): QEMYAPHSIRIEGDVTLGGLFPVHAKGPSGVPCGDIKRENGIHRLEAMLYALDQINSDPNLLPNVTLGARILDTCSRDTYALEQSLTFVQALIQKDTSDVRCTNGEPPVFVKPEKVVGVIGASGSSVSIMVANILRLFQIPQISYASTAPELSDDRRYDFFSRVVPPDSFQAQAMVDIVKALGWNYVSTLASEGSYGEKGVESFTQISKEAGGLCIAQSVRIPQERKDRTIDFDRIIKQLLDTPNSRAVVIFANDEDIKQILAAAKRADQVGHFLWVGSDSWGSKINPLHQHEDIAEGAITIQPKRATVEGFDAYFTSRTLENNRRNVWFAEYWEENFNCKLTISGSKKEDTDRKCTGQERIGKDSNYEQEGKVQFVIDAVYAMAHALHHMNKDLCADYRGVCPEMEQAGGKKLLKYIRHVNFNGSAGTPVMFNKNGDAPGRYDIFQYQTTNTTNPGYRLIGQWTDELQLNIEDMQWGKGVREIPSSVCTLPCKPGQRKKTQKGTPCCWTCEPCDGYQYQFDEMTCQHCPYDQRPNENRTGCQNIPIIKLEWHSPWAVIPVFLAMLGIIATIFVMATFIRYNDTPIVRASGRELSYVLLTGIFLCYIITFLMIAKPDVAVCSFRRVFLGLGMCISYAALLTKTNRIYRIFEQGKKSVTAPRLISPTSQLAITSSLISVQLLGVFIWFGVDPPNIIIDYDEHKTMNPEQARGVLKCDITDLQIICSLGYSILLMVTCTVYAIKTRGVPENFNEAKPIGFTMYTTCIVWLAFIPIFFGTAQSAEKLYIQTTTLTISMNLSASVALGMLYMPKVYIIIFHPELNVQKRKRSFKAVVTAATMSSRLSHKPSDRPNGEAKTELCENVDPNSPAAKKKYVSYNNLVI

rat mGluR2 = rat mGluR2 (Rattus norvegicus, UniProt P31421); conditions: doses up to 10 μm; cited from earlier work
Chain of rat mGluR2 (P31421 19-872): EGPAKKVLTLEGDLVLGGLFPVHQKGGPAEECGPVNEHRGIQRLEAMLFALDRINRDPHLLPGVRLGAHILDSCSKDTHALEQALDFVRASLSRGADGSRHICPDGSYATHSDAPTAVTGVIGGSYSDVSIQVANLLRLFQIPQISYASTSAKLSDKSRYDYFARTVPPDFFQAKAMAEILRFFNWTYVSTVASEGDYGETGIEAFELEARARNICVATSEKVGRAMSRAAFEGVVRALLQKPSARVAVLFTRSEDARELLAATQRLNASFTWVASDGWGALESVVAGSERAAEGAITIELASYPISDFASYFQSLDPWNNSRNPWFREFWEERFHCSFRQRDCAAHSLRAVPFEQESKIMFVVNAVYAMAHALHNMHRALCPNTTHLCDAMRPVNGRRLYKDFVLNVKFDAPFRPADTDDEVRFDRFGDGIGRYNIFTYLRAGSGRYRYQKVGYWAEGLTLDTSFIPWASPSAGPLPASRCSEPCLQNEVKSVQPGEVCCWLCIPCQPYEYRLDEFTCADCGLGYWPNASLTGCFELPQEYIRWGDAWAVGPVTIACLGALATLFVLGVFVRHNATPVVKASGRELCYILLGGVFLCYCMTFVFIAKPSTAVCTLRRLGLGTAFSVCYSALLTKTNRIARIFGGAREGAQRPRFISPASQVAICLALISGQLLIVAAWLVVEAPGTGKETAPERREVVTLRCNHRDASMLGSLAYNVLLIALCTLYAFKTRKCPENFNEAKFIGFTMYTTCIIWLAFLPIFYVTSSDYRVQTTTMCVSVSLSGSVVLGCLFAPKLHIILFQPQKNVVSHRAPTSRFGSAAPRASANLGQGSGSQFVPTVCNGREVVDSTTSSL

anxiety in rats = conditions: cited from earlier work
[2] = humans, cited from earlier work
rat mGluR1a = rat mGluR1a (Rattus norvegicus, UniProt P23385); conditions: doses up to 10 μm; cited from earlier work
Chain of rat mGluR1a (P23385 19-1199): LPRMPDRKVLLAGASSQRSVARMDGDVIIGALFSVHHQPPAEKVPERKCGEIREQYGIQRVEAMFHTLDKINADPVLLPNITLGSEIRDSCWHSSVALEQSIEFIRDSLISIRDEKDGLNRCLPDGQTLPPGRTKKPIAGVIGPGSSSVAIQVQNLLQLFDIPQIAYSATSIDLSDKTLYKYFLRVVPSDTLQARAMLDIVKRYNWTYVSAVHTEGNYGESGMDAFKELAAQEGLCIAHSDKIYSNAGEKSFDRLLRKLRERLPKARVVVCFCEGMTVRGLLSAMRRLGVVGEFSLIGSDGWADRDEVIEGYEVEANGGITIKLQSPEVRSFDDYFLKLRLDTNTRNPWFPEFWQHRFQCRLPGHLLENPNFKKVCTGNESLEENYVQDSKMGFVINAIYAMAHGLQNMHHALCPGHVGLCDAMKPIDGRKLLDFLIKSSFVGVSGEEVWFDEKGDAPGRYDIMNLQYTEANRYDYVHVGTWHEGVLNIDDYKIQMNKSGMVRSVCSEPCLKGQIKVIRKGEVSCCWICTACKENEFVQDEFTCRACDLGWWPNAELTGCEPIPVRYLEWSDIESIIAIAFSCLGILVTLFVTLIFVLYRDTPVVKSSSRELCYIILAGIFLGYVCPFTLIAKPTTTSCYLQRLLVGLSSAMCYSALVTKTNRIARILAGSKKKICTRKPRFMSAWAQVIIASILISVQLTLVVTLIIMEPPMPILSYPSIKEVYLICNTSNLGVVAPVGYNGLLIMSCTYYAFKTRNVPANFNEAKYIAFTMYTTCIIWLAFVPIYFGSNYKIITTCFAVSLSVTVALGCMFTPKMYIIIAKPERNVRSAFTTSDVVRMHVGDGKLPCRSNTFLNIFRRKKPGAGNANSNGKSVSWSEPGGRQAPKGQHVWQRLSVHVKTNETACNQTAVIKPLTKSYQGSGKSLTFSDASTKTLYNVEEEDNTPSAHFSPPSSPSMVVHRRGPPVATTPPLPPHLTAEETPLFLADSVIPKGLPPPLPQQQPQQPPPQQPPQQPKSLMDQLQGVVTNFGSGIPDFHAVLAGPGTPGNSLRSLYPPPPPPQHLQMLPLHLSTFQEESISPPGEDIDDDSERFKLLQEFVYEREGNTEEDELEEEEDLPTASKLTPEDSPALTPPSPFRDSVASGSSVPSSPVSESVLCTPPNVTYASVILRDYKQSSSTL

[3] = tested on: audiogenic seizures in mice; experiment: Audiogenic seizure (AGS) testing; assay type: in vivo, mouse; conditions: treated (immunized or Purina + drug)
[4] = tested on: Aβ1-40 and Aβ1-42 in Tg2576 mouse brain; experiment: Brain Aβ ELISA after chronic fenobam-supplemented diet in Tg2576 mice; conditions: one month
Protocol: FIG. 12 is a graph illustrating the effects of fenobam treatment in Tg2576 mice. Tg2576 mice were fed placebo or fenobam-supplemented lab diet for one month prior to harvesting brains for ELISA assays. For chronic dosing, the diet was supplemented with 0.2 g fenobam per kg lab diet and colored red for visual differentiation with the placebo food. Whole brain homogenates from control and fenobam-treated mice were analyzed by ELISA for Aβ1-40 (left) and Aβ1-42 (right). Data were plotted as ng/mL Aβ per μg soluble brain lysate. […] The left bar in each group represents Aβ levels in mice fed with placebo food; and the right bar in each group represents Aβ levels in mice fed with fenobam-supplemented food.
(§1) Mice were fed a fenobam-supplemented mouse food that was a purified ingredient diet formulated by Research Diets, Inc. (New Brunswick, N.J.) to match Purina 5015 lab diet in protein, carbohydrate and fat calories. For chronic dosing, the diet was supplemented with 0.2 g fenobam per kg lab diet and colored red for visual differentiation with the placebo food.
After one month of chronic fenobam dosing, brain tissue was harvested and Aβ levels measured. Specifically assessed by ELISA were human (expressed from the APPSwe transgene) and mouse (endogenous) Aβ1-40 and Aβ1-42 levels.

[5] = Tolerability of fenobam-supplemented diet in Tg2576 mice; assay type: in vivo
Source text: as §1

rat mGluR4a = rat mGluR4a (Rattus norvegicus, UniProt P31423); conditions: doses up to 10 μm; cited from earlier work
Chain of rat mGluR4a (P31423 33-912): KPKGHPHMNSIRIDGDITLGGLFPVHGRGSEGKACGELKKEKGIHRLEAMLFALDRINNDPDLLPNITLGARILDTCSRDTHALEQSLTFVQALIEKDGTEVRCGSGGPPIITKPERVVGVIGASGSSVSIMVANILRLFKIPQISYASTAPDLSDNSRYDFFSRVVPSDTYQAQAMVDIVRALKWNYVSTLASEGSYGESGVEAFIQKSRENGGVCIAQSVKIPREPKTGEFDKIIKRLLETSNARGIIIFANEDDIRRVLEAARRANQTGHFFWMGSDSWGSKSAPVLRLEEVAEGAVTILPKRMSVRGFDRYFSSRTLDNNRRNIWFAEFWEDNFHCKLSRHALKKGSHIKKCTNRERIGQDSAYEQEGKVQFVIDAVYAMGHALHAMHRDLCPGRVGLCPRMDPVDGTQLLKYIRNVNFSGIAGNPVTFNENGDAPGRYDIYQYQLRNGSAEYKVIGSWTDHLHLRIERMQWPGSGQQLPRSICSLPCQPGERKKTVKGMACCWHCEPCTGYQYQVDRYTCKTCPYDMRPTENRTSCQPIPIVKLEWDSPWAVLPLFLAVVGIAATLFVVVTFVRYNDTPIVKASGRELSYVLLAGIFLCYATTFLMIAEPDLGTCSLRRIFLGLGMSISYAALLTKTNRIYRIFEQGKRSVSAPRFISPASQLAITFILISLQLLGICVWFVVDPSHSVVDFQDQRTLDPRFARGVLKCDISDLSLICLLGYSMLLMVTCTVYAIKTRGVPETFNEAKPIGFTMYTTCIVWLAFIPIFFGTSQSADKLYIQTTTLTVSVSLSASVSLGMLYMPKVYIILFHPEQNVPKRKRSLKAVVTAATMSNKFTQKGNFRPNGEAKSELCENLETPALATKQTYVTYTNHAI

rat mGluR8a = rat mGluR8a (Rattus norvegicus, UniProt P70579); conditions: doses up to 10 μm; cited from earlier work
Chain of rat mGluR8a (P70579 34-908): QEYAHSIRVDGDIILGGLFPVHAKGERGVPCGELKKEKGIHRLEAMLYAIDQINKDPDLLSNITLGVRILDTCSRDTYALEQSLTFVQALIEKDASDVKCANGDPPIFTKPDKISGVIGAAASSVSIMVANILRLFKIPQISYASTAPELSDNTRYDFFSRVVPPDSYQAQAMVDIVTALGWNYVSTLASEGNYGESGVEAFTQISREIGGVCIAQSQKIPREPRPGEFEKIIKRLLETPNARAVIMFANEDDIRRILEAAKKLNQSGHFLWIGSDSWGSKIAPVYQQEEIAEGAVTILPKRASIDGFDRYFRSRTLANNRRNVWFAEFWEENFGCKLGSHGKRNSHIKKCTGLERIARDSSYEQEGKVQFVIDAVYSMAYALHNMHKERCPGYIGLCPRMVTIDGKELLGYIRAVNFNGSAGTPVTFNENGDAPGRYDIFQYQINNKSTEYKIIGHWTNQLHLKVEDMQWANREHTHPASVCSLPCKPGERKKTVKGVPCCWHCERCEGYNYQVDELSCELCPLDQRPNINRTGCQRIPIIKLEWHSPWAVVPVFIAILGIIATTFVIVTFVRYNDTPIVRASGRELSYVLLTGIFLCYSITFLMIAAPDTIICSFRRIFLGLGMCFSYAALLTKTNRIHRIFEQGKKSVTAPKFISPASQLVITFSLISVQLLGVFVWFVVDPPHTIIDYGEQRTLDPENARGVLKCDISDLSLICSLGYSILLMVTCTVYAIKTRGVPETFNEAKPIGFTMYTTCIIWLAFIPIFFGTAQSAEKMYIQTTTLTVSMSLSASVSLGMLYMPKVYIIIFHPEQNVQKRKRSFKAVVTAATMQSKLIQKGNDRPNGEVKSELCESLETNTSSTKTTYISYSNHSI

mGluR5 = mGluR5 (Homo sapiens, UniProt P41594); conditions: shared allosteric modulatory site; cited from earlier work
APP translation in SN = experiment: 35S-Met labeling and immunoprecipitation of newly synthesized APP in synaptoneurosomes; assay type: cell-based, mouse; conditions: WT SN, 40 μM anisomycin + 100 μM DHPG, 15 min
Protocol: WT and KO SNs (450 μl) were mixed with 25 μl Redivue Pro-Mix-L [^35S] for 5 min prior to stimulation with 25 μl 2 mM DHPG. Samples were flash frozen at the indicated times. To analyze new protein synthesis, SN lysates were cleared of free isotope, Percoll®, and sucrose by purification with the PAGEprep Advance kit according to the manufacturer's directions. Protein concentrations were determined by the BCA assay, and 15 μg protein was denatured and loaded per lane on 12% SDS gels for content analysis. Gels were dried and exposed to a phosphorimager screen to identify the results of these assays.
To specifically analyze APP synthesis, WT and KO SN lysates (500 μl) were immunoprecipitated with APP antibody. Briefly, SN lysates were precleared with protein A magnetic beads in 1 ml volumes containing 500 μl SNs, 500 μl 2×IP buffer (20 mM HEPES (pH 7.4), 400 mM NaCl, 60 mM EDTA (pH 8), and 2% Triton X-100), protease inhibitor cocktail, and 100 μl packed fresh protein A magnetic beads. For the immunoprecipitations, 10 μg anti-APP antibody (Zymed catalog number 51-2700) and fresh protein A magnetic beads were added and mixed overnight at 4° C. The beads were washed three times with IP buffer, and the final, washed pellets were suspended in 40 μl 2×SDS sample buffer and boiled for 5 min; the proteins were then separated on 12% SDS gels. The gels were transferred to a nitrocelluose membrane, dried, exposed to a phosphorimager screen, and scanned on a STORM 860 phosphorimager (Molecular Dynamics http://www6.amershambiosciences.com). APP bands at 120 kDa were quantitated with ImageQuant software (GE Healthcare Life Sciences, http://www4.amershambiosciences.com).
For mGluR5 inhibitor studies, SNs (425 μl) were preincubated with 25 μl anisomycin (40 μM final concentration) or MPEP (10 μM final concentration) for 10 min prior to the addition of 25 μl ^35S-Met for 5 min and stimulation with DHPG (100 μM final concentration) for 15 min. Samples were processed as described in the preceding paragraph.
To further assess FMRP regulation of APP levels in brain, cortical SN were prepared from WT mice and overall protein synthesis analyzed in response to DHPG (100 μM)-induced mGluR5 activation. SN were metabolically active as assessed by ^35S-Met incorporation. […]
These conclusions were tested by assessing the effects on APP translation of contacting SN with a group 1 mGluR5 antagonist, 2-methyl-6-(phenylethynyl)-pyridine (MPEP). […] To assess the effect of MPEP, a specific mGluR5 antagonist, on DHPG stimulation of de novo APP synthesis, SN were pre-treated with 10 μM MPEP for 10 min prior to the addition of ^35S-Met for 5 min and stimulation with 100 μM DHPG for 15 min. ^35S-Met-labeled APP was immunoprecipitated with anti-APP antibodies and analyzed by SDS-PAGE. […]

## CN1CC(=O)N=C1NC(=O)Nc1cccc(Cl)c1.O=S(=O)(O)O [fenobam]
[1]; fenobam food 1 month
  decrease in Aβ1-42 in the cortex: 40%
[1]; fenobam food 2 months
  Aβ1-42 in hippocampus and cortex: modest reductions
  decrease in Aβ1-40 in cerebellum: 19%
  decrease in Aβ1-40 in cortex: 26%
  reduction in Aβ1-42 in the cerebellum: 4.2 fold
Anxiety in humans
  effect on anxiety: reduces anxiety
Anxiety in mice
  effect on anxiety: reduces anxiety
Rat mGluR7a
  activity toward rat mGluR7a: no activity
Rat mGluR2
  activity toward rat mGluR2: no activity
Anxiety in rats
  effect on anxiety: reduces anxiety
[2]; therapeutically-effective dosages
  side effects: no harmful side effects
[2]
  side effects in one study (Friedmann et al., 1980): psycho-stimulating properties
Rat mGluR1a
  activity toward rat mGluR1a: no activity
[3]; DS (Ts65Dn) mice
  % Death: 0%
  % WR: 58%
[3]; DS (Ts65Dn) mice, listed as Fenobaum
  % AGS: 0%
[3]; DS (Ts65Dn) mice, listed as fenobaum
  % AGS: attenuates seizures
[3]; WT littermates of DS model
  % AGS: 0%
  % Death: 0%
  % WR: 0%
[4]; Tg2576, fenobam diet
  mouse Aβ1-42 levels: no change
[4]; Tg2576 males on fenobam food
  mouse Aβ1-40 level in brain: 60 ng/mL/µg
[4]; Tg2576 mice, 0.2 g fenobam per kg diet
  human Aβ levels, control vs fenobam-fed: No change
[4]; male Tg2576, 0.2 g fenobam per kg diet
  decrease in mouse Aβ1-40 levels: 11.5 fold
[5]; Tg2576 mice, 0.2 g fenobam per kg diet, chronic dosing
  premature death: no incidences of premature death
[5]; mouse, in vivo
  adverse side effects: No adverse side effects
  weight gain: normal weight gain
Rat mGluR4a
  activity toward rat mGluR4a: no activity
Rat mGluR8a
  activity toward rat mGluR8a: no activity
mGluR5
  mGluR5 antagonist character: potent and highly selective noncompetitive antagonists

## COc1ccc(C[C@H]2NC[C@H](O)[C@H]2OC(C)=O)cc1 [anisomycin]
APP translation in SN
  effect on mGluR activation of APP translation: blocked
